Results published in patent US9878986B2, “Compounds for selective histone deacetylase inhibitors, and pharmaceutical composition comprising the same” (CHONG KUN DANG PHARMACEUTICAL CORP., priority 2013, dated 2018).

What was measured:
[1] = target: T1, HDAC 6 (Homo sapiens, UniProt Q9UBN7); test: Test of HDAC activities, HDAC6 (fluorimetric); format: biochemical; design: purchased Calbiochem 382180; details: samples at 0.1, 1, 10, 100, 1000 nM; 37° C. 60 minutes; fluorescence Ex 390, Em 460; read-out: HDAC inhibitory activities, HDAC6
T1 sequence (Q9UBN7 1-1215): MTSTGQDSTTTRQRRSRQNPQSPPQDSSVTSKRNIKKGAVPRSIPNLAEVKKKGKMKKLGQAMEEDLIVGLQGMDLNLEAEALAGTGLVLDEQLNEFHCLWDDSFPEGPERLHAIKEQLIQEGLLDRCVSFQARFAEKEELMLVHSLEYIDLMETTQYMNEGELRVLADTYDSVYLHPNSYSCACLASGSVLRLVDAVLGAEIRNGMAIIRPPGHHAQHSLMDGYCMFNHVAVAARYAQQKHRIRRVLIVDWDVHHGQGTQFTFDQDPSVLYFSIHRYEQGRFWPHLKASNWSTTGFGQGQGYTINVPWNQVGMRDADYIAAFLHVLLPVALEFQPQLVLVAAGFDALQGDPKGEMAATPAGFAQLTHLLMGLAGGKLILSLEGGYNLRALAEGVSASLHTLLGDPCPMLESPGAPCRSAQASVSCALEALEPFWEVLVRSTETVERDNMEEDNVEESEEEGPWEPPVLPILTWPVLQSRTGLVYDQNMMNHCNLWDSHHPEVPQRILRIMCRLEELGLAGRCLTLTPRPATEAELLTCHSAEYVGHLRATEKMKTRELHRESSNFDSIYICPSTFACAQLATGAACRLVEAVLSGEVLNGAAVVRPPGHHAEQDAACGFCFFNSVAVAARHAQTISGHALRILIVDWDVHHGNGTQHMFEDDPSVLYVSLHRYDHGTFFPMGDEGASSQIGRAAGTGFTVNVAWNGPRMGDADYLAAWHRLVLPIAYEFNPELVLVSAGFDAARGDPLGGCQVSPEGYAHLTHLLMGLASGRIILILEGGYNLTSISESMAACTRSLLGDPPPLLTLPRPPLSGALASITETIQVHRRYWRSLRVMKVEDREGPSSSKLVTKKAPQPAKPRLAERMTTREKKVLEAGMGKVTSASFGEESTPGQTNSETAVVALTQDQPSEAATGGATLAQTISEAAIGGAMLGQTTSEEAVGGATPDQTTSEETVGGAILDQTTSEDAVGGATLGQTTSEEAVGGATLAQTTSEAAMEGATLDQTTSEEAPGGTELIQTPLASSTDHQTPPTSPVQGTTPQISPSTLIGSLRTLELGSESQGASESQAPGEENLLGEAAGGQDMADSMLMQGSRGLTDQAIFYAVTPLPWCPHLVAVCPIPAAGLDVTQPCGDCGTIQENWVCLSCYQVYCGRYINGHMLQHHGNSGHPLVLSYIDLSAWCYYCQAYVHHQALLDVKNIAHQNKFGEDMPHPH
Summary of the method: (§1)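 HDAC1 tested at 100, 1000 and 10000 nM; recombinant human HDAC6 at 0.1, 1, 10, 100 and 1000 nM. Reaction 60 min at 37° C, then developer for 30 min at 37° C; fluorescence read at Ex 390/Em 460.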

[2] = target: HDAC1 (Homo sapiens, UniProt Q13547); test: Test of HDAC activities, HDAC1 Fluorimetric Drug Discovery Assay Kit; format: biochemical; design: purchased Enzolifesciences BML-AK511; details: samples at 100, 1000, 10000 nM; 37° C. 60 minutes; fluorescence Ex 390, Em 460; read-out: HDAC inhibitory activities, HDAC1
Chain of HDAC1 (Q13547 whole entry): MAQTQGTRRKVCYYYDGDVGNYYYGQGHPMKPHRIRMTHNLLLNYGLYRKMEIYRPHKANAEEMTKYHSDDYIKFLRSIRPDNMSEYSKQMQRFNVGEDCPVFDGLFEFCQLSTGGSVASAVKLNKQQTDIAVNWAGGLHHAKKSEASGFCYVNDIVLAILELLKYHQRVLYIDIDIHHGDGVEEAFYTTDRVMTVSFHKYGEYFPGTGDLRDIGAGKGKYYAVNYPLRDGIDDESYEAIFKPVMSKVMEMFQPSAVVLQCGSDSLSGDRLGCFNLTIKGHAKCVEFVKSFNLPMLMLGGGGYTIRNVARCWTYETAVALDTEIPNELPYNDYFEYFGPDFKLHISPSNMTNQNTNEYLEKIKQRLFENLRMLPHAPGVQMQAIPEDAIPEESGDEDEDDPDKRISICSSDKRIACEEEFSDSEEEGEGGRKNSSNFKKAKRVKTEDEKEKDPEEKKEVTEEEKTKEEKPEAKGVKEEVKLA
Summary of the method: as §1

Structure (SMILES)	IC50 [1] [nM]	IC50 [2] [nM]
O=C(NO)c1ccc(CN(C(=O)N2CC(F)(F)C2)c2ccc(C(F)(F)F)cc2)cc1 [Compound 485, 3,3-difluoro-N-(4-(hydroxycarbamoyl)benzyl)-N-(4-(trifluoromethyl)phenyl)azetidine-1-carboxamide]	8	860
O=C(NO)c1ccc(CN(C(=O)N2CCOCC2)c2cccc(C(F)(F)F)n2)cc1 [Compound 778, N-(4-(hydroxycarbamoyl)benzyl)-N-(6-(trifluoromethyl)pyridin-2-yl)morpholine-4-carboxamide]	11	6430
O=C(NO)c1ccc(CN(C(=O)N2CCOCC2)c2cccnc2)cc1 [Compound 281, N-(4-(hydroxycarbamoyl)benzyl)-N-(pyridin-3-yl)morpholine-4-carboxamide]	27	3910
O=C(NO)c1ccc(CN(C(=O)N2CCOCC2)c2ccccn2)cc1 [Compound 280, N-(4-(hydroxycarbamoyl)benzyl)-N-(pyridin-2-yl)morpholine-4-carboxamide]	5	1260
CC(C)(C)OC(=O)N1CCC(c2cccc(N(Cc3ccc(C(=O)NO)cc3)C(=O)N3CCOCC3)c2)CC1 [Compound 489, tert-butyl 4-(3-(N-(4-(hydroxycarbamoyl)benzyl)morpholine-4-carboxamido)phenyl)piperidine-1-carboxylate]	0.5	1220
CC1CN(C(=O)N(Cc2ccc(C(=O)NO)cc2)c2cccc(C(F)(F)F)n2)CC(C)O1 (stereo not shown) [Compound 827, N-(4-(hydroxycarbamoyl)benzyl)-2,6-dimethyl-N-(6-(trifluoromethyl)pyridin-2-yl)morpholine-4-carboxamide]	24.7	1740
CN1CCN(C(=O)N(Cc2ccc(C(=O)NO)cc2)c2ccccn2)CC1 [Compound 353, N-(4-(hydroxycarbamoyl)benzyl)-4-methyl-N-(pyridin-2-yl)piperazine-1-carboxamide]	10	4530
O=C(NO)c1ccc(CN(C(=O)N2CCCCC2)c2cccc(C(F)(F)F)n2)cc1 [Compound 828, N-(4-(hydroxycarbamoyl)benzyl)-N-(6-(trifluoromethyl)pyridin-2-yl)piperidine-1-carboxamide]	36.7	4140
O=C(NO)c1ccc(CN(C(=O)N2CCN(C(=O)C3CC3)CC2)c2cccc(-c3ccc4c(c3)OCO4)c2)cc1 [Compound 470, N-(3-(benzo[d][1,3]dioxol-5-yl)phenyl)-4-(cyclopropanecarbonyl)-N-(4-(hydroxycarbamoyl)benzyl)piperazine-1-carboxamide]	1	635
O=C(NO)c1ccc(CN(C(=O)N2CCN(CC3(F)CCOCC3)CC2)c2cccc(C(F)(F)F)c2)cc1 [Compound 716, 4-((4-fluorotetrahydro-2H-pyran-4-yl)methyl)-N-(4-(hydroxycarbamoyl)benzyl)-N-(3-(trifluoromethyl)phenyl)piperazine-1-carboxamide]	6.4	727
O=C(NO)c1ccc(CN(C(=O)N2CCOCC2)c2cccc(CF)c2)cc1 [Compound 500, N-(3-(fluoromethyl)phenyl)-N-(4-(hydroxycarbamoyl)benzyl)morpholine-4-carboxamide]	3	1000
CCN1CCN(C(=O)N(Cc2ccc(C(=O)NO)cc2)c2ccccn2)CC1 [Compound 354, 4-ethyl-N-(4-(hydroxycarbamoyl)benzyl)-N-(pyridin-2-yl)piperazine-1-carboxamide]	9	3910
O=C(NO)c1ccc(CN(C(=O)N2CCOCC2)c2cccc(-c3cncnc3)c2)cc1 [Compound 397, N-(4-(hydroxycarbamoyl)benzyl)-N-(3-(pyrimidin-5-yl)phenyl)morpholine-4-carboxamide]	14	1000
O=C(NO)c1ccc(CN(C(=O)N2CC[C@H](F)C2)c2cccc(C(F)(F)F)c2)cc1 [Compound 496, (S)-3-fluoro-N-(4-(hydroxycarbamoyl)benzyl)-N-(3-(trifluoromethyl)phenyl)pyrrolidine-1-carboxamide]	1	1120
